In ChEMBL document CHEMBL1201862, “PubChem BioAssay data set” (2004):
Activity calls are given as the source filed them. Residues, ends and D or L forms follow the SMILES beside them. *: point of attachment. Boc = CC(C)(C)OC(=O)*; Bn = c1ccc(C*)cc1

Key:
[1] = biological target: T1, Zinc finger protein mex-5 (Caenorhabditis elegans, UniProt Q9XUB2); experiment: MEX-5/TCR-2 RNA interaction inhibitors, dose response, biochemical, C. elegans, fluorescence polarization (AID 1960)
T1 sequence (Q9XUB2 whole entry): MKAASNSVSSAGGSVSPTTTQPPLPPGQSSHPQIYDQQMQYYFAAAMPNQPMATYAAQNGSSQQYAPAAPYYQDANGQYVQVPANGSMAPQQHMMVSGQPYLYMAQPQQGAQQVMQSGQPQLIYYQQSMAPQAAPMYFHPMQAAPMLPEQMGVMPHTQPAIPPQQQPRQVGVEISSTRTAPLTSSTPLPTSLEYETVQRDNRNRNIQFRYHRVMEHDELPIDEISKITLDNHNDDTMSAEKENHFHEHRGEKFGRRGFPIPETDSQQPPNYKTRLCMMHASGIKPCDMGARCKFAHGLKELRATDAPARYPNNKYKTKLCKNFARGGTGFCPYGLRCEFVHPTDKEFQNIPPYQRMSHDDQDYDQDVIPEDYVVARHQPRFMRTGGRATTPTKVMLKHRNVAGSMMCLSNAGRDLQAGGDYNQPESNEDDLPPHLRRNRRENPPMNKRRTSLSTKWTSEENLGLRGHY

[2] = biological target: T2, RNA-binding protein pos-1 (Caenorhabditis elegans, UniProt G5EF15); experiment: inhibitors of POS-1/mex-3 RNA binding, dose response, biochemical, fluorescence polarization (AID 1964);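 further: purified POS-1 fused to maltose binding protein made in E. coli; potency of compounds blocking POS-1 binding to fluorescent RNA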
T2 sequence (G5EF15 whole entry): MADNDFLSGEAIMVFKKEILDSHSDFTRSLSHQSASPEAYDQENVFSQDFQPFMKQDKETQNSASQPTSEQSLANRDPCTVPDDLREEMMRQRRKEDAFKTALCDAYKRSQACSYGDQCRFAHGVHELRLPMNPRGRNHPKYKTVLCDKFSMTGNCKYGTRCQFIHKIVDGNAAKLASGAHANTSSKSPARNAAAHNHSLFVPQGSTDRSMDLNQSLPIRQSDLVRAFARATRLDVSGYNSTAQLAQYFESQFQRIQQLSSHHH

H4 = experiment: Luminescence Cell-Based Dose Response HTS to Identify Activators of 5'UTR Stem-Loop Driven Prion Protein mRNA Translation in H4 Neuroglioblastoma Cells. [Related pubchem assays: 1829 (Project Summary), 1814 (Primary HTS)]; format: functional; conditions: Homo sapiens
Streptococcus = experiment: Group A Streptococcus viability loss, dose response, counter-screen for streptokinase expression inhibitor project, luminescence, BacTiterGlo (AID 1915); format: functional, organism-based;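 further: potency for reduction of bacterial viability or growth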
Streptokinase A = biological target: T3, Streptokinase A (Streptococcus pyogenes serotype M1, UniProt P10520); experiment: S. pyogenes streptokinase expression inhibitors, potency, dose response, plasminogen activation absorbance, OD405 (AID 1914); format: functional, Streptococcus pyogenes M1 GAS;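 further: secreted streptokinase activity via plasminogen activation per viability signal from cell pellet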
T3 sequence (P10520 whole entry): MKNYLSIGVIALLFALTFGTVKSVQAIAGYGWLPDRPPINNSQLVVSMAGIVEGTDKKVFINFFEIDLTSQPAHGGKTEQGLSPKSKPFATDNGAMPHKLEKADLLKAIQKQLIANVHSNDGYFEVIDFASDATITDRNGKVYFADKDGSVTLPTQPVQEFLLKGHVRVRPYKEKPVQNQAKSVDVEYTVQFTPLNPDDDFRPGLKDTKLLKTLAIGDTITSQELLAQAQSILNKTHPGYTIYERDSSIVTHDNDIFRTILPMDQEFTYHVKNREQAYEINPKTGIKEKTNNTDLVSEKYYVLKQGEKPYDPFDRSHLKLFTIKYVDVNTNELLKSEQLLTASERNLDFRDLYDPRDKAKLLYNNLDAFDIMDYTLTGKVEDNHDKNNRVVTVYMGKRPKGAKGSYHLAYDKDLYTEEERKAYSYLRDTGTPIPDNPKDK

[3] = test system: Streptococcus sp. 'group A'; experiment: growth inhibition of control SK(-) GAS strain, dose response, counter-screen for streptokinase expression inhibitor project, luminescence, kanamycin, BacTiterGlo, confirmation (AID 1900); format: functional, organism-based
Cytochrome P450 2C9 = Cytochrome P450 2C9 (Homo sapiens, UniProt P11712)
Cytochrome P450 2C9, sequence (P11712 whole entry): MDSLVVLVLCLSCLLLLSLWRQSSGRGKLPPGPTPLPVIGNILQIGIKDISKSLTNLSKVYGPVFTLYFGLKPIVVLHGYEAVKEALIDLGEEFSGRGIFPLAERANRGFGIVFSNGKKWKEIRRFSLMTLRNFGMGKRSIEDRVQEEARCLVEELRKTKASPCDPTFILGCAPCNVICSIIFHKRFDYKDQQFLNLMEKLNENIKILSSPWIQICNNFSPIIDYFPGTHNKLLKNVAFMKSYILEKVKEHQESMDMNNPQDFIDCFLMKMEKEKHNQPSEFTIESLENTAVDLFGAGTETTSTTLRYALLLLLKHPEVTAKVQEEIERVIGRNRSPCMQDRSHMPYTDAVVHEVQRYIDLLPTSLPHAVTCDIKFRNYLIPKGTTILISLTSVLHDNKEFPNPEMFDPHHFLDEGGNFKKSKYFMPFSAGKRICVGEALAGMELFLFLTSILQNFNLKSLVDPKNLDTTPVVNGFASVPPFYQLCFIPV

[4] = Luminescence Cell-Based Dose Retest to Confirm Inhibitors of Cancer Stem Cells. [Related pubchem assays (depositor defined):AID2717, AID2721]; format: functional; conditions: Homo sapiens
[5] = NIH-3T3 fibroblast cytotoxicity, dose response, cytotoxicity control, cell-based, fluorescence, Alamar Blue, secondary assay (AID 2327); format: functional;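 further: NIH-3T3 mouse fibroblasts cultured with fluconazole at 8 µg/mL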
[6] = C. albicans growth with fluconazole, confirmation, fluorescence, retest (AID 2467); format: functional, cell-based
Cytochrome P450 3A4 = Cytochrome P450 3A4 (Homo sapiens, UniProt P08684);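 further: CYP3A4 tested as one member of a cytochrome P450 panel screen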
Cytochrome P450 3A4, sequence (P08684 whole entry): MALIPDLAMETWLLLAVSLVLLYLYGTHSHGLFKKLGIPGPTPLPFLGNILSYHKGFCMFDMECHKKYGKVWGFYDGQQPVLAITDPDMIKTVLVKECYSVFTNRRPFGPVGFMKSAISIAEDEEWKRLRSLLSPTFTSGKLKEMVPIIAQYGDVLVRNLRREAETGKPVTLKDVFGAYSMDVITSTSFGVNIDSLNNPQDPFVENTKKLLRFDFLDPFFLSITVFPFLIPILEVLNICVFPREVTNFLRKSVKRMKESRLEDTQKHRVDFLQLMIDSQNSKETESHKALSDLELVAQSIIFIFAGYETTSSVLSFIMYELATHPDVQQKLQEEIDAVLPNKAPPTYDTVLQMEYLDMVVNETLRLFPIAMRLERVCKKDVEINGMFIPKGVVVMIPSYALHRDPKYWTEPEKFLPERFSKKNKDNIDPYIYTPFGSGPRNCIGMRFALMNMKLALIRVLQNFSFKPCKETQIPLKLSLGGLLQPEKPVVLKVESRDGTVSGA

Cytochrome P450 2C19 = Cytochrome P450 2C19 (Homo sapiens, UniProt P33261); experiment: Cytochrome panel assay with activity outcomes. Panel member name: p450-cyp2c19 Compounds with AC50 equal or less than 10 uM are considered active; format: functional; conditions: read-out: AC50
Cytochrome P450 2C19, sequence (P33261 whole entry): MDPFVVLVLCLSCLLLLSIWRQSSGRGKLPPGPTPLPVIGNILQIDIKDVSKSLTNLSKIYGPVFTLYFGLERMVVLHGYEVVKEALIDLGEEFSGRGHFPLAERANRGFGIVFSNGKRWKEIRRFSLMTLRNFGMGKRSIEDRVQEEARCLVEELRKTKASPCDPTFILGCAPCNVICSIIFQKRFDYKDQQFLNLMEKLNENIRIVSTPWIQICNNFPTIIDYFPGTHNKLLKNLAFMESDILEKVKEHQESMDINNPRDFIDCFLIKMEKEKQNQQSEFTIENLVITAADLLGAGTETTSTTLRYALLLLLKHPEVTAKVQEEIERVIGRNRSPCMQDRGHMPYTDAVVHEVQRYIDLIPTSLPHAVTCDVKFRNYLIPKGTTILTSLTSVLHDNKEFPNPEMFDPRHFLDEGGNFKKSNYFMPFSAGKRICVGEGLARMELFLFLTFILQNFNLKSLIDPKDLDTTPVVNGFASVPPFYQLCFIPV

[7] = Luminescence Cell-Based Dose Response HTS to Identify Activators of Luciferase Translation or Activity in H4 […] Cells. [Related pubchem assays: 1829 (Project Summary), 1814 (Primary HTS)]; format: functional
INS1 = experiment: beta cell apoptosis inhibitors, cytokine rescue, dose response, luminescence, retest (AID 449756); format: functional, cell-based; conditions: Rattus norvegicus;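 further: cell death triggered by IL-1 beta plus TNF-alpha plus IFN-gamma mixture; protective hits raise ATP signal compared with cytokine alone wells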

Cc1noc(/C=C/N(C)C)c1S(=O)(=O)N1CCC(C(=O)O)CC1
EC50 [1]: > 300 µM (not active) | EC50 [2]: > 300 µM (not active)

CC1(OC(=O)c2ccc(Cl)nc2)C(=O)C=C2C=C(C3CC3)OC=C2C1=O (centres undefined)
EC50 [1]: 14.3 µM (active) | EC50 [2]: 15.1 µM (active)

Cc1ccccc1/C=C/c1nc(O)c2ccccc2n1
EC50 (H4): 1.13 µM (active)

Cc1cc(Cl)c2oc(C(=O)N3CCC(O)(c4ccccc4)CC3)c(C)c2c1
EC50 (Streptococcus): 14.8 µM (active) | EC50 (Streptokinase A): > 150 µM (not active) | EC50 [3]: 5.13 µM (active)

C/C(NCc1ccco1)=C1\C(=O)NC(=O)N(c2ccccc2)C1=O
AC50 (Cytochrome P450 2C9): 39.8 µM (inconclusive)

CC(C)c1ccc(NC(=O)NC(C)c2ccc3c(c2)OCO3)cc1 (centres undefined)
EC50 (Streptococcus): > 150 µM (not active) | EC50 (Streptokinase A): > 150 µM (not active) | EC50 [3]: > 150 µM (not active)

CC(C)CCC(CCNCc1ccccn1)c1ccc(Cl)cc1 (centres undefined)
EC50 (Streptococcus): 132 µM (active) | EC50 (Streptokinase A): > 150 µM (not active) | EC50 [3]: 7.65 µM (active)

COC(=O)CCCC1=CC2=CC(=O)C(C)(O)C(=O)C2=CO1 (centres undefined)
EC50 [1]: 29 µM (active) | EC50 [2]: > 300 µM (not active)

C=CCNC(=S)Nc1cc(Cl)ccc1OC
EC50 [1]: > 300 µM (not active) | EC50 [2]: > 300 µM (not active)

CC(C)CC(=O)NC(N=C(S)Nc1sc2c(c1C#N)CCCC2)C(Cl)(Cl)Cl (centres undefined)
EC50 (Streptococcus): 6.32 µM (active) | AC50 [4]: 0.974 µM (active) | EC50 (Streptokinase A): 3.23 µM (active) | EC50 [3]: 3.06 µM (active)

CCc1ccc(-c2ccc3nnc(SCC(N)=O)n3n2)cc1
EC50 (Streptococcus): 18.6 µM (active) | EC50 (Streptokinase A): > 150 µM (not active) | EC50 [3]: 1.83 µM (active)

O=c1c(F)cn(C2CCCO2)c(=O)n1Cc1c(F)cccc1Cl (centres undefined)
EC50 [5]: > 150 µM (inactive) | EC50 [6]: > 38 µM (not active)

CS(=O)(=O)Nc1ccc(C2=NN(C(=O)C3CCCCC3)C(c3cccs3)C2)cc1 (centres undefined)
EC50 (Streptococcus): 6.38 µM (active) | EC50 (Streptokinase A): > 150 µM (not active) | EC50 [3]: 4.11 µM (active)

CCOC(=O)c1ccc(Oc2nc(NC(C)(C)C)nc(N(C)C)n2)cc1
EC50 [5]: > 150 µM (inactive) | EC50 [6]: > 38 µM (not active)

Cc1ccc(Cn2c(=N)c(C(=O)NCC3CCCO3)cc3c(=O)n4ccccc4nc32)cc1 (centres undefined)
EC50 [1]: > 300 µM (not active) | EC50 [2]: > 300 µM (not active)

Cc1ccc(C2(C)NC(=O)N(CC(=O)Nc3cc(C)on3)C2=O)cc1 (centres undefined)
AC50 (Cytochrome P450 2C9): 14.1 µM (inconclusive) | AC50 (Cytochrome P450 3A4): 25.1 µM (inconclusive)

Nc1ccc(/N=N\c2ccc(-c3ccc(O)cc3)cc2)c2ccc(S(=O)(=O)O)cc12
AC50 (Cytochrome P450 2C19): 6.31 µM (inconclusive) | AC50 (Cytochrome P450 2C9): 5.01 µM (inconclusive)

COc1cccc(C(=O)NNC(=O)c2ccccc2Br)c1
EC50 [5]: > 150 µM (inconclusive) | EC50 [6]: > 38 µM (not active)

Cn1c(SCc2ccccc2)nnc1-c1ccc2c(c1)OCO2
EC50 [7]: 95.9 µM (active) | EC50 (H4): 29.8 µM (inconclusive)

CCOC(=O)c1c(NC(=S)N2CCN(C)CC2)sc(C)c1-c1ccccc1
EC50 (Streptokinase A): 22.4 µM (active)

O=C1Nc2cc(C(=O)N3CCN(c4ccccn4)CC3)ccc2S/C1=C\c1ccccc1
EC50 (Streptococcus): 18.2 µM (active) | EC50 (Streptokinase A): > 150 µM (not active) | EC50 [3]: 3.55 µM (active)

Cc1nn(-c2ccccc2)c(N2CCCC2)c1/C=C1\N=C(c2ccc(F)cc2)OC1=O
EC50 [1]: 56.7 µM (active) | EC50 [2]: > 300 µM (inconclusive)

COc1ccc(-c2cc(C(=O)N3CC4(C)CC3CC(C)(C)C4)no2)cc1 (centres undefined)
AC50 [4]: 0.442 µM (active)

Cc1ccc(NCCC(=O)c2ccc(Cl)cc2)cc1
AC50 (Cytochrome P450 2C9): 3.98 µM (inconclusive) | AC50 (Cytochrome P450 3A4): 12.6 µM (inconclusive)

O=C(NCc1nc(-c2ccc(C(F)(F)F)cc2)no1)Nc1ccc(OC(F)(F)F)cc1
AC50 [4]: 2.68 µM (active)

Brc1ccc(CN2CCN(Cc3c[nH]c4ccccc34)CC2)cc1
AC50 (INS1): 6.68 µM (active)

COc1ccc(S(=O)(=O)n2ccc(-c3cnc(-c4ccccc4)s3)n2)cc1
EC50 [7]: > 120 µM (not active) | EC50 (H4): 41.2 µM (active)

Cc1ccccc1Oc1nc(-c2ccccn2)nc2ccccc12
EC50 (Streptococcus): 18.5 µM (active) | AC50 (INS1): 2.19 µM (active) | EC50 (Streptokinase A): > 150 µM (not active) | EC50 [3]: 12.4 µM (active)

CCCCc1nc(NCc2ccccc2)c(C#N)c2c1CCCC2
EC50 (Streptococcus): 19.1 µM (active) | EC50 (Streptokinase A): 2.96 µM (active) | EC50 [3]: 9.14 µM (active)

CCn1cc(C(=O)NCc2ccccn2)c(=O)c2cc(S(=O)(=O)N3CCCCC3)ccc21
EC50 [1]: 102 µM (active) | EC50 [2]: 154 µM (active)

c1nc(NCc2ccc3c(c2)OCO3)c2cc(-c3ccc4c(c3)OCCO4)ccc2n1
AC50 (INS1): 10.4 µM (active)

COc1ccc(OC)c(C(=O)CSc2nccc(-c3ccc(Br)cc3)n2)c1
AC50 [4]: 1.33 µM (active)

CC1=NN(C(N)=S)C(=O)C1N=Nc1c(Cl)cc([N+](=O)[O-])cc1Cl (centres undefined)
EC50 [1]: 85.9 µM (active) | EC50 [2]: > 300 µM (not active)

Cn1c(=O)c(-c2cc(F)cc(F)c2)nc2cnc(N3CCNCC3)nc21
AC50 (Cytochrome P450 2C9): 25.1 µM (inconclusive) | AC50 (Cytochrome P450 3A4): 31.6 µM (inconclusive)

COc1ccc(Nc2nnc(-c3ccccc3)c3ccccc23)cc1C(=O)N1CCCCC1
AC50 [4]: 31.2 µM (active)

O=c1cnc2cncnc2n1Cc1ccccc1
AC50 (Cytochrome P450 2C19): 39.8 µM (inconclusive) | AC50 (Cytochrome P450 2C9): 31.6 µM (inconclusive) | AC50 (Cytochrome P450 3A4): 20 µM (inconclusive)

CSc1nnc(N2C(=O)C(O)=C(C(=O)c3ccco3)C2c2ccccc2)s1 (centres undefined)
EC50 [1]: 76.6 µM (active) | EC50 [2]: > 300 µM (inconclusive)

Oc1c(C(c2ccccn2)N2CCC(Cc3ccccc3)CC2)cc(Cl)c2cccnc12 (centres undefined)
EC50 [5]: 13.9 µM (inconclusive) | EC50 [6]: 1.46 µM (active)

O=C(CN1C(=O)S/C(=C\c2ccccn2)C1=O)Nc1ccccc1
EC50 [5]: 89.4 µM (active) | EC50 [6]: > 38 µM (not active)

COc1ccc(OC)c(-c2csc(NC(=O)c3ccc(F)cc3)n2)c1
AC50 [4]: 2.38 µM (active)

COc1ccc(C2C(C#N)=C(N)OC3=C2C(=O)CCC3)cc1OC (centres undefined)
EC50 [1]: > 300 µM (not active) | EC50 [2]: > 300 µM (not active)

C1=C(c2ccccc2)Nc2nnnn2C1c1cccs1 (centres undefined)
EC50 [1]: > 300 µM (not active) | EC50 [2]: > 300 µM (not active)

O=C(O)c1cc(O)ccc1NC(=O)C(c1ccccc1)c1ccccc1
AC50 [4]: > 195 µM (inactive)

COC(=O)c1ccc(-n2c(C)cc(/C=N/n3cnnc3)c2C)cc1
EC50 [1]: > 300 µM (not active) | EC50 [2]: > 300 µM (not active)

CCCCNc1cc(=O)oc2ccccc12
AC50 (Cytochrome P450 2C9): 6.31 µM (inconclusive) | AC50 (Cytochrome P450 3A4): 17.8 µM (inconclusive)

COc1cc(/C=N/Nc2ccc(F)cc2F)cc(OC)c1OC
EC50 [5]: 20.8 µM (active) | EC50 [6]: > 38 µM (not active)

CC(C)CC(NC(=O)C(NC(=O)C(Cc1ccc(OCc2ccccc2)cc1)NC(=O)OC(C)(C)C)C(C)C)C(N)=O (stereo not drawn) (Boc-Tyr(Bn)-Val-Leu-NH2; configuration not given here)
AC50 [4]: 24.4 µM (active)
